Patent publication US7465576B2, “Method for treating periodontal disease with a bacteriocidal disinfectant” (priority 2004, dated 2008)
Like-named read-outs stand apart in the source and are kept apart here.

How the values were obtained:
[1] = tested on: thumbnails of volunteers; experiment: Elongation of thumbnails (Test Example 7); type: in vivo, human; settings: for Elongation of nails: Left (treated) thumbnail
Description: As a general rule the bacterial disinfectants were applied immediately after hand washing. Nail growth and shape are closely tied to individual physical condition, and are a benchmark of health.

[2] = tested on: acid-fast bacteria; type: cell-based
[3] = tested on: MRSA or E. coli O-157; type: cell-based; settings: organic substance exceeding 50 ppm
[4] = tested on: putrefying bacteria in fried meat and vegetables; experiment: Viable cell numbers in prepared food after spraying (Test Example 3); type: cell-based
Description: (§1) With regards to the putrefaction process of prepared food, we investigated whether or not the present bactericidal disinfectant could stop the progress of putrefaction when sprayed of food, and the degree of that bactericidal effect. Normally disinfectants are not applied to prepared food, but very often scraps of food become lodged in a periodontal pocket, providing a nutritional source for bacteria, and since the present bactericidal disinfectant is composed of compounds which are recognized as food additives, it is important to assess these effects. Just-prepared cooked rice, tofu (soybean curd), spinach with sesame dressing, and fried meat and vegetables were each crushed, homogenized, and left at 28° C. for use as the samples. After samples had been left for 5 hours, part of each was taken and used to measure bacterial viable cell number, while the respective disinfectants were sprayed uniformly on the remaining samples. Viable cell numbers were measured 1, 2 and 24 hours after spraying. Water alone was sprayed as a control. After samples had been left for 24 hours part of each was taken for measuring viable cell number, and the respective disinfectants were sprayed uniformly on the remaining samples. As when the samples were left for 5 hours, viable cell numbers were measured 1 hour, 2 hours and 24 hours after spraying. Water alone was sprayed as a control. Viable cell numbers were measured by the poured plate method using 5 g of each sample diluted by ordinary methods.
(§2) The degree of putrefaction of course differs depending on the preparation method, ingredients and environment, but in the case of the cooked rice in this experiment, the viable cell number immediately after preparation was […] cells/g of sample, rising to 1×10^3 cells/g of sample after 5 hours, 5×10^5 cells/g of sample after 24 hours and 7×10^6 cells/g of sample after 48 hours. In the case of the tofu (soybean curd), the initial viable cell number was 2×10^4 cells/g of sample, rising to 8×10^5 cells/g of sample after 5 hours, 9×10^7 cells/g of sample after 24 hours, and 1×10^9 cells/g of sample after 48 hours, with considerable putrefaction. In the case of the spinach with sesame dressing, the viable cell number was 2×10^3 cells/g of sample immediately after preparation, rising to 5×10^4 cells/g of sample after 5 hours, 3×10^7 cells/g of sample after 24 hours and 2×10^8 cells/g of sample after 48 hours. In the case of the fried meat and vegetables, it was […] cells/g of sample immediately after preparation, rising to 2×10^3 cells/g of sample after 5 hours and 2×10^8 cells/g of sample after 24 hours, at which point there was a slight smell of putrefaction, while after 48 hours putrefaction has progressed still further and the viable cell number had risen to 3×10^9 cells/g of sample.

[5] = tested on: putrefying bacteria in spinach with sesame dressing; experiment: as above; type: cell-based
Description: as §1, §2

[6] = tested on: putrefying bacteria in cooked rice; experiment: as above; type: cell-based
Description: as §1, §2

[7] = tested on: putrefying bacteria in tofu (soybean curd); experiment: as above; type: cell-based
Description: as §1, §2

[8] = tested on: spores of sporulating bacteria; type: cell-based
[9] = tested on: Red worms; settings: for Deaths: groups of 10 red worms
Description: Red worms with a mean length of 40 mm were prepared in groups of 10, the annuli of the red worms were severed with a cutter, and ordinary concentrations of the various bactericidal disinfectants contained in absorbent cotton were applied to the severed ends twice a day, morning and night. Application to the ends was continued even after the severed ends healed, and recovery and growth were observed. Water was applied as a control.

[10] = tested on: putrefying bacteria in prepared food; experiment: Viable cell numbers in prepared food after spraying (Test Example 3), summary; type: cell-based
Description: With regards to the putrefaction process of prepared food, we investigated whether or not the present bactericidal disinfectant could stop the progress of putrefaction when sprayed of food, and the degree of that bactericidal effect. Normally disinfectants are not applied to prepared food, but very often scraps of food become lodged in a periodontal pocket, providing a nutritional source for bacteria, and since the present bactericidal disinfectant is composed of compounds which are recognized as food additives, it is important to assess these effects. Just-prepared cooked rice, tofu (soybean curd), spinach with sesame dressing, and fried meat and vegetables were each crushed, homogenized, and left at 28° C. for use as the samples. […] Water alone was sprayed as a control. […] Water alone was sprayed as a control. […] Consequently, although complete eradication was not achieved, it can be said that bactericide was largely achieved. That is, there is the ability to halt development of putrefying bacteria in food and a bactericidal effect.

[11] = tested on: detached skin wounds of mice; experiment: Recovery from skin damage (Test Example 5); type: in vivo; settings: applied to wound twice a day
[12] = tested on: plaque adhering to supragingival calculus; experiment: Viable cell numbers in plaque soaked in disinfectant (Test Example 4); type: cell-based; settings: 60 minutes of immersion
[13] = sprayed after 5 hours, 1 hr after spraying
[14] = sprayed after 5 hours, 2 hrs after spraying
[15] = sprayed after 5 hours, 24 hrs after spraying
[16] = sprayed after 5 hours, just after spraying
[17] = sprayed after 24 hours, 1 hr after spraying
[18] = sprayed after 24 hours, 2 hrs after spraying
[19] = sprayed after 24 hours, 24 hrs after spraying
[20] = sprayed after 24 hours, just after spraying
[21] = 5 days after severing, 20 mm when severed

Q: Which results are given for `OO` [3% aqueous hydrogen peroxide, hydrogen peroxide]?
A: Elongation of nails ([1]; 10 days): 0.9 mm; Elongation of nails ([1]; 20 days): 1.8 mm; Elongation of nails ([1]; 30 days): 2.7 mm; Elongation of nails ([1]; 40 days): 3.6 mm; Elongation of nails ([1]; 50 days): 4.5 mm; Elongation of nails ([1]; 60 days): 5.4 mm; difference in elongation between right and left hands ([1]; applied for 2 months): No significant differences in elongation; time required to kill acid-fast bacteria [2]: a minute or more; bactericidal effect in presence of organic substance [3]: A similar tendency was seen; viable cell number [4, 13]: 2 × 10^2 cells/g of sample; viable cell number [4, 14]: 4 × 10^2 cells/g of sample; viable cell number [4, 15]: 5 × 10^6 cells/g of sample; viable cell number [4, 16]: 5 × 10^2 cells/g of sample; viable cell number [4, 17]: 5 × 10^4 cells/g of sample; viable cell number [4, 18]: 1 × 10^5 cells/g of sample; viable cell number [4, 19]: 4 × 10^8 cells/g of sample; viable cell number [4, 20]: 6 × 10^6 cells/g of sample; viable cell number [5, 13]: 4 × 10^2 cells/g of sample; viable cell number [5, 14]: 5 × 10^2 cells/g of sample; viable cell number [5, 15]: 1 × 10^5 cells/g of sample; viable cell number [5, 16]: 1 × 10^3 cells/g of sample; viable cell number [5, 17]: 5 × 10^3 cells/g of sample; viable cell number [5, 18]: 5 × 10^3 cells/g of sample; viable cell number [5, 19]: 7 × 10^6 cells/g of sample; viable cell number [5, 20]: 4 × 10^4 cells/g of sample; viable cell number [6, 13]: 1 × 10^2 cells/g of sample; viable cell number [6, 14]: 1.8 × 10^2 cells/g of sample; viable cell number [6, 15]: 5 × 10^4 cells/g of sample; viable cell number [6, 16]: 2 × 10^2 cells/g of sample; viable cell number [6, 17]: 9 × 10^3 cells/g of sample; viable cell number [6, 18]: 2 × 10^4 cells/g of sample; viable cell number [6, 19]: 8 × 10^5 cells/g of sample; viable cell number [6, 20]: 4 × 10^4 cells/g of sample; viable cell number [7, 13]: 2 × 10^3 cells/g of sample; viable cell number [7, 14]: 3 × 10^4 cells/g of sample; viable cell number [7, 15]: 6 × 10^6 cells/g of sample; viable cell number [7, 16]: 5 × 10^4 cells/g of sample; viable cell number [7, 17]: 3 × 10^4 cells/g of sample; viable cell number [7, 18]: 5 × 10^4 cells/g of sample; viable cell number [7, 19]: 1 × 10^8 cells/g of sample; viable cell number [7, 20]: 7 × 10^5 cells/g of sample; effect against spores [8]: ineffective; length of severed red worms [9, 21]: 21 mm; length of severed red worms ([9]; 10 days after severing): 22 mm; length of severed red worms ([9]; 15 days after severing): 23 mm; length of severed red worms ([9]; 20 days after severing): 24 mm; length of severed red worms ([9]; 30 days after severing): 25 mm; length of severed red worms ([9]; 40 days after severing): 27 mm; length of severed red worms ([9]; 50 days after severing): 28 mm; Deaths [9]: 7; bactericidal effect on putrefying bacteria in food [10]: most of the bacteria survived immediately after spraying; Recovery: Complete recovery (coat grown back) [11]: 40 days; Recovery: Skin with roughly original thickness [11]: 15 days; Recovery: Thin skin overall [11]: 5 days; survival of bacteria living inside plaque [12]: half survived

Q: For `CC(O)C(=O)O.CCOc1ccc2nc3cc(N)ccc3c(N)c2c1` [Acrinol, acrinol], which Elongation of nails ([1]; 10 days) is on record?
A: 0.8 mm

Q: What about the Elongation of nails ([1]; 20 days) of the same compound?
A: 1.6 mm

Q: What about the Elongation of nails ([1]; 30 days) of the same compound?
A: 2.4 mm

Q: And the Elongation of nails ([1]; 40 days)?
A: 3.3 mm

Q: What about the Elongation of nails ([1]; 50 days) of the same compound?
A: 4.0 mm

Q: And the Elongation of nails ([1]; 60 days)?
A: 4.8 mm

Q: What about the “bactericidal effect in presence of organic substance” value [3] of the same compound?
A: A similar tendency was seen

Q: What about the “length of severed red worms” value [9, 21] of the same compound?
A: 21 mm

Q: What about the “length of severed red worms” value ([9]; 10 days after severing) of the same compound?
A: 22 mm

Q: What about the “length of severed red worms” value ([9]; 15 days after severing) of the same compound?
A: 23 mm

Q: What about the “length of severed red worms” value ([9]; 20 days after severing) of the same compound?
A: 24 mm

Q: And the “length of severed red worms” value ([9]; 30 days after severing)?
A: 27 mm

Q: What about the “length of severed red worms” value ([9]; 40 days after severing) of the same compound?
A: 29 mm

Q: And the “length of severed red worms” value ([9]; 50 days after severing)?
A: 30 mm

Q: And the Deaths [9]?
A: 8

Q: And the “Recovery: Complete recovery (coat grown back)” value [11]?
A: 40 days

Q: What about the “Recovery: Skin with roughly original thickness” value [11] of the same compound?
A: 15 days

Q: What about the “Recovery: Thin skin overall” value [11] of the same compound?
A: 5 days

Q: What about the “survival of bacteria living inside plaque” value [12] of the same compound?
A: half survived
